Entries after “also recorded” stand apart in the source; their conditions may differ.
Columns and labels:
[1] = system: human peripheral blood mononuclear cells (PBMCs); experiment: T cell activation in CSFE labeled human PBMCs fed drug-killed MDA-MB-231 cells, with or without pembrolizumab; assay type: cell-based; conditions: PBMCs fed drug-exposed MDA-MB-231 cells, 48 hours
Description: Induction of the innate immune response following exposure to cancer cells undergoing ICD sets up secondary T cell activation, which can be enhanced by concomitant pembrolizumab treatment.

[2] = system: MDA-MB-231 xenograft; experiment: MDA-MB-231 xenograft model in humanized NSG mice; assay type: in vivo
Protocol: The in vivo anti-tumor efficacy of tisotumab vedotin in combination with an anti-PD-1 monoclonal antibody was evaluated in NOD.Cg-PrkdC^scid Il2rg^tm1Wj1/SzJ (NSG) immunodeficient mice (The Jackson Laboratory, Stock No. 005557), humanized by engraftment with human CD34^+ hematopoietic stem cells (Jackson Laboratories, Sacramento). Mice were subcutaneously inoculated with 5×10^6 MDA-MB-231 cells (breast adenocarcinoma; American Tissue Culture Collection (ATCC), cat. no. HTB-26), in 100 μL phosphate-buffered saline (PBS). Before inoculation, cells were cultured in DMEM with high glucose and HEPES without L-glutamine (Lonza, cat. no. BE12-709F), 10% (v/v) donor bovine serum with iron New Zealand Origin (Thermo Fisher Scientific, DBSI, cat. no. 10371-029), 2 mM L-glutamine (Lonza, cat. no. BE17-605E), 1 mM Na-pyruvate (Lonza, cat. no. BE13-115E), MEM non-essential amino acids (Life Technologies, cat. no. 11140) and 1% (v/v) penicillin/streptomycin (Lonza, cat. no. DE17-603E), in CellSTACK culture chambers (Corning, cat. no. 3313).
Tumor size was determined by caliper measurement at least two times a week and tumor volume was calculated as 0.52×length×width^2. When tumors reached the size of 100 mm^3 mice were randomized in 7 groups (8 mice per treatment group) based on mouse cohort and tumor size (Table 1). Mice were treated with tisotumab vedotin alone (1 mg/kg or 0.5 mg/kg), intravenously, weekly for a maximum of five treatments, or in combination with an anti-PD-1 antibody (i.e., pembrolizumab, KEYTRUDA®, 50 mg concentrate, Merck & Co., Inc., Kenilworth, N.J. USA) or with anti-PD-1 antibody alone. The first dose of the anti-PD-1 antibody (i.e., pembrolizumab) was 10 mg/kg, followed by 5 mg/kg every five days for a maximum of six treatments. Mice in control groups were administered 1 mg/kg of IgG1 isotype control antibody or IgG1 isotype control antibody conjugated to MMAE intravenously, weekly for a maximum of five treatments (Table 1). The IgG1 isotype control antibody is the b12 antibody which is known to bind to HIV-1 gp120. […]

[3] = system: murine tumor cells that stably express human TF; experiment: Immunization of Balb/c mice with drug-killed human TF positive murine tumor cells, then tumor challenge (syngeneic model); assay type: in vivo; conditions: mice immunized with drug-killed human TF positive tumor cells
Protocol: Mouse tumor cells are transfected with plasmid constructs encoding human tissue factor (TF) and sgRNA-guided Cas9 nuclease (sgRNA/Cas9) to generate a murine cell line that expresses the human TF. Fluorescence activated cell sorting (FACS) yields a clonal population of murine tumor cells that stably express human TF, these cells are then treated with 1 μg to 5 μg per ml of tisotumab vedotin or 100 nM of MMAE for 4 days. In order to prepare dying cells for immunization, treated murine tumor cells are overlaid atop Histopaque, and centrifuged at 2000 g for 30 minutes. Dead and dying cells are pelleted underneath the Histopaque layer, and viability assessed by trypan blue exclusion. A sample with approximately <20% live cells as measured by trypan blue exclusion is obtained. Flash-frozen tumor cells are prepared by submerging the cells in liquid nitrogen for 10 seconds, followed by immersion in 37° C. water until completely thawed. The liquid nitrogen freeze-thaw process is repeated 5 times. Dead and dying human TF positive tumor cells are resuspended in phosphate buffered saline (PBS) and 2×10^6 cells are injected into the peritoneum of immune-competent Balb/c mice. Seven days later, mice receive a second immunization with dead and dying cells prepared in the same manner.
Fourteen days after initial immunization with the dead and dying human TF positive tumor cells, mice are subcutaneously implanted with 5×10^6 wild-type tumor cells and monitored for tumor growth. […] As these effects occur in the absence of any administered therapeutic agent, the administration of cells killed by tisotumab vedotin or MMAE is sufficient to generate long-lasting protective immune memory against subsequent tumor cell challenge. Protective immune memory is amplified by treating these mice with tisotumab vedotin in combination with an antibody that binds to murine PD-1.

[4] = system: Tissue Factor positive cell lines; experiment: Cell death and ATP/HMGB1 release from Tissue Factor positive cell lines; assay type: cell-based; conditions: for activity across multiple Tissue Factor positive cell lines: release of ICD related molecules
Description: Auristatin ADC payloads disrupt the microtubule networks resulting in altered ER localization and function, which ultimately results in ER stress.

[5] = system: HPAFII (pancreatic carcinoma) and MDA-MB-231 (breast carcinoma) cells; experiment: Western blot of ER stress pathways in HPAFII and MDA-MB-231 cells; assay type: cell-based
Protocol: Induction of cell death and release of ICD danger signals occurs concomitant with initiation of an ER stress response. Two Tissue Factor positive cell lines, HPAFII (pancreatic carcinoma) and MDA-MB-231 (breast cell carcinoma) were exposed to tisotumab vedotin ADC, an Isotype-MMAE ADC (H00-MMAE, IgG1 MMAE), or free MMAE for 18 hours and induction of ER stress monitored by western blot analysis. Phosphorylation of inositol-requiring transmembrane kinase/endonuclease 1 (IRE1) was detected after treatment with tisotumab vedotin ADC or MMAE free drug (FIG. 6). […] The ability for auristatins to prime the immune system to recognize tumor antigens opens the door for a myriad of combinatorial therapeutic options.

[6] = system: human peripheral blood mononuclear cells (PBMCs); experiment: Monocyte/macrophage activation in human PBMCs fed drug-killed MDA-MB-231 cells; assay type: cell-based
Description: FIGS. 7A and 7B is a series of graphs in which Tissue Factor positive MDA-MB-231 cells killed with various agents were fed to human peripheral blood mononuclear cells (PBMCs) and immune activation assessed by increased expression of activations markers on innate CD14+ monocyte/macrophages and induction of chemokine and cytokine production.
Immunogenic cell death, as mediated by MMAE, is regulated cell death that activates adaptive immune responses against antigens from dead and dying tumor cells, and allows for the generation of robust innate immune cell activation and subsequent cytotoxic T cell responses targeted towards specific tumor cell antigens. […] Furthermore, these monocyte/macrophages conditioned by ICD-killed cells promote activation of T cells, as evidenced by production of signature inflammatory cytokines associated with cytotoxic T cell responses.

[7] = system: relapsed, recurrent, and/or metastatic cervical cancer; conditions: cited from earlier work
[8] = HPAFII and MDA-MB-231 cells, 18 hours
[9] = subjects who received tisotumab vedotin

With tisotumab the “T cell proliferation (CSFE dilution)” value [1] was “did not elicit these responses”, the “production of IFNγ” value [1] was “did not elicit these responses” and the “production of IL12p70” value [1] was “did not elicit these responses”.

For “tisotumab vedotin: antibody-drug conjugate comprising an antibody that binds to tissue factor (TF), a protease-cleavable linker, and the microtubule disrupting agent MMAE”, the “tumor burden as assessed by tumor volume” value ([2]; tisotumab vedotin 0.5 mg/kg IV weekly) was “efficiently reduced tumor burden”, the “tumor burden as assessed by tumor volume” value ([2]; tisotumab vedotin 1.0 mg/kg IV weekly) was “efficiently reduced tumor burden” and the “survival after challenge with wild-type tumor cells” value [3] was “increased survival”. For the same substance, the “tumor growth after challenge with wild-type tumor cells” value [3] was “delayed tumor growth”, the ATP secretion/release ([4]; Tissue Factor positive cells) was “drove robust A) ATP secretion; also recorded: release the ICD related molecules” and the HMGB1 release ([4]; Tissue Factor positive cells) was “HMGB1 release; also recorded: release the ICD related molecules”. For the same substance, the cell death ([4]; Tissue Factor positive cells) was “undergo cell death”, the “activity across multiple Tissue Factor positive cell lines” value [4] was “occurs across multiple Tissue Factor positive cell lines” and the “activity across multiple Tissue Factor positive cell lines” value ([4]; listed as Tisotumab vedotin) was “active on multiple Tissue Factor positive cell lines”. The “activation of JNK (phosphorylation)” value [5, 8] was “increased phosphorylation”, the “activation of PERK pathway (ATF4 cleavage)” value [5, 8] was “upregulation of ATF4 cleavage” and the “phosphorylation of IRE1” value [5, 8] was “detected”. The “activation of ER stress pathways (phosphorylation of IRE and JNK, cleavage of ATF4)” value ([5]; HPAFII or MDA-MB-231 cells, 16 hours) was “trigger multiple ER stress pathways”, the “monocyte/macrophage activation by CD86 expression” value ([6]; CD14+ monocyte/macrophages, flow cytometry, PBMCs fed killed MDA-MB-231 cells, compared to IgG1-MMAE ADC or tisotumab alone) was “drove monocyte/macrophage activations” and the “release of innate chemokines” value ([6]; PBMCs fed killed MDA-MB-231 cells, compared to IgG1-MMAE ADC or tisotumab alone) was “induced release of innate chemokines including MIP10”. For the same substance, the “chemotactic and inflammatory mediators from monocyte/macrophages” value ([6]; after uptake of killed Tissue Factor positive cells) was “elicit strong chemotactic and inflammatory mediators”, the “T cell proliferation (CSFE dilution)” value [1] was “drove T cell proliferation” and the “production of IFNγ” value [1] was “increased; also recorded: production of T cell specific cytokines”. For the same substance, the “production of IL12p70” value [1] was “increased; also recorded: production of T cell specific cytokines”, the efficacy ([7]; 2.0 mg/kg tisotumab vedotin) was “robust efficacy” and the safety profile ([7]; 2.0 mg/kg tisotumab vedotin) was “manageable safety profile”. The “grade of epistaxis cases” value ([7]; nearly all of the cases) was “grade 1”, the “grade of the majority of reported peripheral neuropathy cases” value [7, 9] was “grade 1-2” and the “peripheral neuropathy as cause of permanent discontinuation” value [7, 9] was “leading cause of permanently discontinuation”. The “subjects with peripheral neuropathy” value [7, 9] was “approximately 35%”, the “AEs of grade 1-2 conjunctivitis” value ([7]; tisotumab vedotin alone) was “frequently reported” and the “clinically relevant perturbations in aPTT or PT” value ([7]; tisotumab vedotin) was “have not been observed”. For the same substance, the “epistaxis (bleeding AE) frequency” value ([7]; tisotumab vedotin) was “most common reported AE”.
